Experimental data as given in patent US20240376109A1, “PYRAZOLO[1,5-A]PYRIMIDINE COMPOUND FOR THE TREATMENT OF DERMAL DISORDERS” (OTSUKA PHARMACEUTICAL CO., LTD., priority 2021, published 2024).
Like-named read-outs stand apart in the source and are kept apart here.

Legend:
[1] = test system: ICR mice; assay: Scratching behavior test with PAR2 agonist peptide (SLIGRL-NH2) administration; type: in vivo, mouse; conditions: 40 μL of 6% test compound solution applied to back, SLIGRL-NH2 intradermal, scratching counted 10 to 40 minutes after
Method: Test Example 2: Scratching Behavior Test with PAR2 Agonist Peptide Administration
Magnets for measuring scratching behavior(Neuroscience, Inc.) were implanted in both legs of 6- to 7-week-old female ICR mice under 3.5% isoflurane inhalation anesthesia.
Under isoflurane inhalation anesthesia, the upper back was shaved about 2×3 cm with a shaver and 40 μL of a 6% of test compound solution was applied with a micropipette. The animals were then kept in a dedicated cage for 1 hour. […] Then, under isoflurane inhalation anesthesia, 10 μL of a 25 mg/mL solution of PAR2 agonist peptide (SLIGRL-NH2) in distilled water was administered intradermally by using a needle attached to a Hamilton syringe. The animals were returned to the cage and the scratching frequency was measured by the device for 30 minutes from 10 to 40 minutes after the administration.
The inhibitory effect of the test compounds on scratching behavior was calculated as a percentage of the number of scratches in the solvent-applied and PAR2 agonist peptide-treated group, and is shown in Table 4 as a percentage.

[2] = test system: NZW rabbits; assay: Rabbit skin cumulative irritation test (erythema and edema scores, 7 days); type: in vivo; parameters: key: sum of erythema (5-point scale) + edema (5-point scale) scores; conditions: 50 μL of 3% solution in 70% ethanol daily for 7 days; for Irritant score Day 7: average total score of erythema and edema on Day 7; for Irritant score Maximum: maximum (total) score of erythema and edema during the test period
Method: Test Example 4: Rabbit Skin Cumulative Irritation Test
18-20 week-old female NZW rabbits shaved on the back with a shaver were fitted with a collar (Natsume Seisakusho Co., Ltd.). A 2.5 cm×2.5 cm frame was placed on the back of the rabbits, and 50 μL of a 3% solution of each compound in 70% ethanol was applied to the place in 2 or 3 rabbits. The next day (approximately 24 hours later), the compound applied on the previous day was wiped off with a cotton pad soaked in lukewarm water, and approximately 30 minutes later, erythema (5-point scale) and edema (5-point scale) were evaluated according to the score criteria shown below.
After the score evaluation, the compound was applied again. This process was conducted for 7 days, and irritancy was evaluated by the average of the total score of erythema and edema on the last day of evaluation (Day 7) and the maximum (total) scores during the test period.
The score evaluation criteria were as follows.

[3] = target: T1, PAR2 (Homo sapiens, UniProt P55085); assay: Intracellular calcium concentration measurement (SLIGKV-NH2-induced calcium change, Fluo-8, FDSS/μCELL); type: cell-based
T1 construct: HEK293 cell lines derived from human embryonic kidney cultured in a MEM culture medium; endogenous in cells; host or cells: HEK293
T1 sequence (P55085 26-397): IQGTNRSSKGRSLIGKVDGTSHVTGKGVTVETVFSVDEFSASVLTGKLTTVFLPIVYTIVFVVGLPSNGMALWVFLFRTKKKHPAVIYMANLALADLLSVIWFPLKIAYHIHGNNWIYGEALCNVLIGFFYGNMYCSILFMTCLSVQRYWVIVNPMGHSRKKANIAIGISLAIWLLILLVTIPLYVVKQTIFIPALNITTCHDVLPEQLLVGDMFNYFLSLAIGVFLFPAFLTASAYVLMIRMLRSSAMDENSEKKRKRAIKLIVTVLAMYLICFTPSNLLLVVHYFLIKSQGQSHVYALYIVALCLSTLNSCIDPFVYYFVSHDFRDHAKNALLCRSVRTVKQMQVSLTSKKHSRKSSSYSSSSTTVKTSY

[4] = test system: NC/Nga mice; assay: Scratching behavior test using atopic dermatitis model (SDS and mite antigen ointment sensitization); conditions: 60 μL applied, 7 hours after application
[5] = HEK293 cells, SLIGKV-NH2 10 μM-induced intracellular calcium change, read-out: IC50

| SMILES | scratching-behavior inhibition rate ([1]; solvent 100% ethanol) [%] | Irritant score Day 7 [2] | Irritant score Maximum [2] | IC50 [3, 5] [nM] | Scratching behavior inhibition rate ([4]; assessed concentration 3%, solvent 100% ethanol) [%] | IC50 ([3]; IC50 (nM)) [nM] | Scratching behavior inhibition rate ([4]; assessed concentration 6%, solvent 100% ethanol) [%] | scratching-behavior inhibition rate ([1]; solvent 70% ethanol) [%] | Scratching behavior inhibition rate ([4]; assessed concentration 6%, solvent 70% ethanol) [%] |
| --- | --- | --- | --- | --- | --- | --- | --- | --- | --- |
| CC(C)c1cc(CC2CCCC2)nc2cc(C(=O)N3CCCCCC3)nn12 [Example 15, azepan-1-yl-[5-(cyclopentylmethyl)-7-propan-2-ylpyrazolo[1,5-a]pyrimidin-2-yl]methanone] | 44 | 0.0 | 0.7 | 150 | 52 |  |  |  |  |
| CC(C)c1cc(CC2CCCCC2)nc2cc(C(=O)N3CCCCCC3)nn12 [Example 7, azepan-1-yl(5-(cyclohexylmethyl)-7-isopropylpyrazolo[1,5-a]pyrimidin-2-yl)methanone] | 32 | 0.3 | 1.3 |  |  | 113 | 70 |  |  |
| O=C(c1cc2nc(CC3CCCCC3)cc(C(F)(F)F)n2n1)N1CCCCCC1 [Example 3, azepan-1-yl(5-(cyclohexylmethyl)-7-(trifluoromethyl)pyrazolo[1,5-a]pyrimidin-2-yl)methanone] |  | 1.5 | 1.6 | 23 |  |  |  | 33 | 71 |
